In ChEMBL document CHEMBL2177022, “Novel acidic 11β-hydroxysteroid dehydrogenase type 1 (11β-HSD1) inhibitor with reduced acyl glucuronide liability: the discovery of 4-[4-(2-adamantylcarbamoyl)-5-tert-butyl-pyrazol-1-yl]benzoic acid (AZD8329)” (J Med Chem, 2012):
Active and inactive are the calls of the source. No cut-off for these calls is given here.

Experiments:
[1] = system: L5178Y; assay: Genotoxicity in mouse L5178Y cells; format: toxicity, cell-based
[2] = Volume of distribution at steady state in mouse at 1 and 3 mg/kg; format: ADME, organism-based; set-up: dose 3 mg/kg; conditions: in vivo, read-out: Vdss
[3] = target: 11-beta-hydroxysteroid dehydrogenase 1 (Mus musculus, UniProt P50172); assay: Inhibition of N-terminal 6-His tagged full length mouse 11betaHSD1 incubated for 25 mins by HTRF assay
[4] = Half life in dog at 1 and 3 mg/kg, po; format: ADME, organism-based, Canis lupus familiaris; set-up: dose 3 mg/kg, route oral; conditions: in vivo
[5] = target: 17-beta-hydroxysteroid dehydrogenase type 1 (Homo sapiens, UniProt P14061); assay: Inhibition of 17beta-HSD1 assessed as conversion of estrone to estradiol by scintillation counting method
[6] = system: Canis familiaris; assay: Renal clearance in dog at 1 and 3 mg/kg relative to total clearance; format: ADME, organism-based, Canis lupus familiaris, Kidney; set-up: dose 3 mg/kg; conditions: in vivo
[7] = target: CYP2C9 (Homo sapiens, UniProt P11712); assay: Inhibition of CYP2C9 at 10 uM; format: ADME
[8] = Half life in dog at 1 and 3 mg/kg, iv; format: ADME, organism-based, Canis lupus familiaris; set-up: dose 3 mg/kg, route intravenous; conditions: in vivo
[9] = Half life in rat at 1 and 3 mg/kg, iv; format: ADME, organism-based; set-up: dose 3 mg/kg, route intravenous; conditions: in vivo
[10] = system: Rattus norvegicus; assay: Renal clearance in rat at 1 and 3 mg/kg relative to total clearance; format: ADME, organism-based, Kidney; set-up: dose 3 mg/kg; conditions: in vivo
[11] = target: T1, 11-beta-hydroxysteroid dehydrogenase 1 (Homo sapiens, UniProt P28845); assay: Inhibition of 11betaHSD1 in human adipocytes assessed as cortisone to cortisol conversion by scintillation counting method; format: cell-based
[12] = Oral bioavailability in rat at 1 and 3 mg/kg; format: ADME, organism-based; conditions: in vivo
[13] = in vivo; conditions: rat
[14] = system: Rattus norvegicus; assay: Inhibition of 11betaHSD1 in lean Han Wistar rat liver assessed as reduction in assessed as [3H]cortisone to [3H]cortisol conversion at 3 mg/kg, po measured 3 hrs post dose; format: functional
[15] = Volume of distribution at steady state in dog at 1 and 3 mg/kg; format: ADME, organism-based, Canis lupus familiaris; set-up: dose 3 mg/kg; conditions: in vivo, read-out: Vdss
[16] = target: 11-beta-hydroxysteroid dehydrogenase type 2 (Homo sapiens, UniProt P80365); assay: Inhibition of 11beta-HSD2 assessed as conversion of cortisol to cortisone by fluorescence based assay
[17] = Plasma clearance in dog at 1 and 3 mg/kg; format: ADME, organism-based, Canis lupus familiaris; set-up: dose 3 mg/kg
[18] = Plasma clearance in mouse at 1 and 3 mg/kg; format: ADME, organism-based; set-up: dose 3 mg/kg
[19] = Half life in mouse at 1 and 3 mg/kg, po; format: ADME, organism-based; set-up: dose 3 mg/kg, route oral; conditions: in vivo
[20] = Apparent permeability from apical to basolateral side in MDCK cells at 10 uM; format: ADME, cell-based, Canis lupus familiaris; conditions: dog
[21] = system: Liver microsomes; assay: Stability in human liver microsomes assessed as oxidative metabolism-mediated generation of reactive metabolites; format: ADME, Microsome
[22] = Inhibition of N-terminal 6-His tagged full length dog 11betaHSD1 incubated for 25 mins by HTRF assay; set-up: species or system Canis lupus familiaris
[23] = system: Salmonella typhimurium; assay: Genotoxicity in Salmonella typhimurium by Ames test; format: toxicity, organism-based; conditions: salmonella enterica subsp. enterica serovar typhimurium
[24] = Percentage unbound in rat plasma at 37 degC by equilibrium dialysis method; format: ADME, cell-free
[25] = system: Hepatocyte; assay: Stability in rat hepatocytes assessed as parent compound remaining; format: ADME, cell-based
[26] = Stability in bile duct cannulated rat urine assessed as parent compound remaining measured during 0 to 6 hrs post dose; format: ADME, tissue-based; conditions: in vivo
[27] = Stability in bile duct cannulated rat bile assessed as parent compound remaining measured during 0 to 6 hrs post dose; format: ADME; conditions: in vivo
[28] = Inhibition of N-terminal 6-His tagged full length cynomolgus monkey 11betaHSD1 incubated for 25 mins by HTRF assay; set-up: species or system Macaca fascicularis
[29] = system: Cavia porcellus; assay: Toxicity in anesthetized guinea pig monophasic action potential model assessed as ventricular repolarization; format: organism-based, Cardiac ventricle; conditions: in vivo
[30] = Percentage unbound in mouse plasma at 37 degC by equilibrium dialysis method; format: ADME, cell-free
[31] = Volume of distribution at steady state in rat at 1 and 3 mg/kg; format: ADME, organism-based; set-up: dose 3 mg/kg; conditions: in vivo, read-out: Vdss
[32] = Drug metabolism in bile duct cannulated rat urine assessed as oxidative metabolism level during 0 to 6 hrs post dose by metabolism-ID study; format: ADME, tissue-based; conditions: in vivo
[33] = Drug metabolism in bile duct cannulated rat bile assessed as oxidative metabolism level during 0 to 6 hrs post dose by metabolism-ID study; format: ADME; conditions: in vivo
[34] = target: Glucocorticoid receptor (Homo sapiens) (UniProt P04150); assay: Inhibition of glucocorticoid receptor
[35] = target: CYP3A4 (Homo sapiens, UniProt P08684); assay: Inhibition of CYP3A4 at 10 uM; format: ADME
[36] = Intrinsic clearance in rat hepatocytes assessed per 10^6 cells
[37] = Stability in dog hepatocytes assessed as parent compound remaining; format: ADME, cell-based, Canis lupus familiaris, Hepatocyte
[38] = Percentage unbound in dog plasma at 37 degC by equilibrium dialysis method; format: ADME, cell-free, Canis lupus familiaris
[39] = target: CYP2C19 (Homo sapiens, UniProt P33261); assay: Inhibition of CYP2C19 at 10 uM; format: ADME
[40] = Oral bioavailability in rat; format: ADME, organism-based; conditions: in vivo
[41] = target: T1, 11-beta-hydroxysteroid dehydrogenase 1
Description: Inhibition of N-terminal 6-His tagged full length human 11betaHSD1 incubated for 25 mins by HTRF assay

[42] = system: Hepatocyte; assay: Stability in human hepatocytes assessed as parent compound remaining; format: ADME, cell-based
[43] = Apparent permeability from basolateral to apical side in MDCK cells at 10 uM; format: ADME, cell-based, Canis lupus familiaris; conditions: dog
[44] = target: Mineralocorticoid receptor (Homo sapiens) (UniProt P08235); assay: Inhibition of mineralocorticoid receptor
[45] = Drug metabolism in dog hepatocytes assessed as oxidative metabolism level by metabolism-ID study; format: ADME, cell-based, Canis lupus familiaris, Hepatocyte
[46] = Oral bioavailability in mouse at 1 and 3 mg/kg; format: ADME, organism-based; conditions: in vivo
[47] = target: 17-beta-hydroxysteroid dehydrogenase type 3 (Homo sapiens) (UniProt P37058); assay: Inhibition of 17beta-HSD3 assessed as conversion of androstenedione to testosterone at 10 uM by scintillation counting method
[48] = Percentage unbound in human plasma at 37 degC by equilibrium dialysis method; format: ADME, cell-free
[49] = Aqueous solubility in pH 7.4 phosphate buffer at 25 degC incubated for 24 hrs; format: physicochemical
[50] = target: CYP1A2 (Homo sapiens, UniProt P05177); assay: Inhibition of CYP1A2 at 10 uM; format: ADME
[51] = Plasma clearance in rat at 1 and 3 mg/kg; format: ADME, organism-based; set-up: dose 3 mg/kg
[52] = Half life in rat at 1 and 3 mg/kg, po; format: ADME, organism-based; set-up: dose 3 mg/kg, route oral; conditions: in vivo
[53] = system: Rattus norvegicus; assay: Inhibition of 11betaHSD1 in lean Han Wistar rat adipose tissue assessed as reduction in assessed as [3H]cortisone to [3H]cortisol conversion at 10 mg/kg, po measured 3 hrs post dose; format: functional, organism-based; set-up: dose 10 mg/kg
[54] = target: CYP2D6 (Homo sapiens, UniProt P10635); assay: Inhibition of CYP2D6 at 10 uM; format: ADME
[55] = Lipophilicity, log D at pH 7.4 by shake flask method; conditions: buffer
[56] = Oral bioavailability in dog at 1 and 3 mg/kg; format: ADME, organism-based, Canis lupus familiaris; conditions: in vivo
[57] = Half life in mouse at 1 and 3 mg/kg, iv; format: ADME, organism-based; set-up: dose 3 mg/kg, route intravenous; conditions: in vivo
[58] = target: 11-beta-hydroxysteroid dehydrogenase 1 (Rattus norvegicus, UniProt P16232); assay: Inhibition of N-terminal 6-His tagged full length rat 11betaHSD1 incubated for 25 mins by HTRF assay

T1 sequence (P28845 whole entry): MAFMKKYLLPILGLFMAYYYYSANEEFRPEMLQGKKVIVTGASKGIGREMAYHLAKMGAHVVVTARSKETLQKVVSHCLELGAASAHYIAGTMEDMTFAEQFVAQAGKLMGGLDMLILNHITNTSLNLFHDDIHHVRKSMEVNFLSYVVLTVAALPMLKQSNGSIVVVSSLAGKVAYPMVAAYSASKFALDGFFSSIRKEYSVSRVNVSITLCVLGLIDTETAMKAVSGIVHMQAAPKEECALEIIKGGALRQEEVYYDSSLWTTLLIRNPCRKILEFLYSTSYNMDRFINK
Sequence of CYP2D6 (P10635 whole entry): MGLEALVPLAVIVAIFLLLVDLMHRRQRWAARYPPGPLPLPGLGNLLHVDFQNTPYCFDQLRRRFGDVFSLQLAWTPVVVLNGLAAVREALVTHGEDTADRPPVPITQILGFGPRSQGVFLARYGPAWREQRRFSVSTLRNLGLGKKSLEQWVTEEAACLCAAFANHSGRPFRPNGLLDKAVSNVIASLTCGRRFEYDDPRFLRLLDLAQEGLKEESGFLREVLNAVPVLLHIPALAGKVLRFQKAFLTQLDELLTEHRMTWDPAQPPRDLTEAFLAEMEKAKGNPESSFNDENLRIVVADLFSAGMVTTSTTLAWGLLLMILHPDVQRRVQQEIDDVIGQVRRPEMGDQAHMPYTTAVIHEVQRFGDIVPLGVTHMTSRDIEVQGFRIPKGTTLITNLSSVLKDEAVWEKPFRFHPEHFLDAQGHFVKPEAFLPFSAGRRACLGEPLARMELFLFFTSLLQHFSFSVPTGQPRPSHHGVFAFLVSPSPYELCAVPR
Sequence of 11-beta-hydroxysteroid dehydrogenase type 2 (P80365 whole entry): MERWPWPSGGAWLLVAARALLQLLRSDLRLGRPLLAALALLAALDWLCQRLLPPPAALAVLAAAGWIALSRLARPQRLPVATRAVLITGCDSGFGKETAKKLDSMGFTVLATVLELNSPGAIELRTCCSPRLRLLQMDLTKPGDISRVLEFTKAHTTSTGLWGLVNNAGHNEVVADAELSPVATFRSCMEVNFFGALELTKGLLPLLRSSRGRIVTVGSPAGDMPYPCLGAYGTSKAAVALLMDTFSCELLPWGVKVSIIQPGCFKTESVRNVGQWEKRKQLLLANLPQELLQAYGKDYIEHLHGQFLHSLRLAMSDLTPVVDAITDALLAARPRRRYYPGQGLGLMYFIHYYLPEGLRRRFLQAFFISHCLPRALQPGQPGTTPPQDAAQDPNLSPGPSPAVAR
Sequence of 17-beta-hydroxysteroid dehydrogenase type 1 (P14061 whole entry): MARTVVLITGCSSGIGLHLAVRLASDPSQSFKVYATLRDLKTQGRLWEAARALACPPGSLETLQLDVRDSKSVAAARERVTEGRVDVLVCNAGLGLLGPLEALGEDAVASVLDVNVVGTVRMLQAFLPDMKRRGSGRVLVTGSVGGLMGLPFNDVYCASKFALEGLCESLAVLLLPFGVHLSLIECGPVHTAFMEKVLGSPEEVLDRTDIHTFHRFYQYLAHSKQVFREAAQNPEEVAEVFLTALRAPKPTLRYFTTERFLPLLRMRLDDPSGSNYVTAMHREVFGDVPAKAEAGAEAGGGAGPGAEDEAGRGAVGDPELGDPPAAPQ
Sequence of 11-beta-hydroxysteroid dehydrogenase 1 (Mus musculus, UniProt P50172) (P50172 whole entry): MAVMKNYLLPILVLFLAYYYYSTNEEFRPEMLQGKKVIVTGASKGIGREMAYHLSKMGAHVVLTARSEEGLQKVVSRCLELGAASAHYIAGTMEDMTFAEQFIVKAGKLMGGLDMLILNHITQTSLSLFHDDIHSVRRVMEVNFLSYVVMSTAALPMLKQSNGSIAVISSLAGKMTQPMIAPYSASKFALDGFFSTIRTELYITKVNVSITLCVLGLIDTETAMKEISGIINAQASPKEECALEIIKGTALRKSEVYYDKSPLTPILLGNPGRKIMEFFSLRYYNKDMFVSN
Sequence of 17-beta-hydroxysteroid dehydrogenase type 3 (Homo sapiens) (P37058 whole entry): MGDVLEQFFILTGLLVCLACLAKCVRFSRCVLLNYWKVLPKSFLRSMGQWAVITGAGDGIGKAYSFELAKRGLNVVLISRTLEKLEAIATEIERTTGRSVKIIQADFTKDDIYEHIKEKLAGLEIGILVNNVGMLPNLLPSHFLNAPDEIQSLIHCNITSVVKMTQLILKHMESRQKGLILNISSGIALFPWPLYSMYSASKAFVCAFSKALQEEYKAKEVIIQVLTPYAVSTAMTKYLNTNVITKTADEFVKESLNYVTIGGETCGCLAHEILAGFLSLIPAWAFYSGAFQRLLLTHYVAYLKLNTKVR
Sequence of Mineralocorticoid receptor (Homo sapiens) (P08235 whole entry): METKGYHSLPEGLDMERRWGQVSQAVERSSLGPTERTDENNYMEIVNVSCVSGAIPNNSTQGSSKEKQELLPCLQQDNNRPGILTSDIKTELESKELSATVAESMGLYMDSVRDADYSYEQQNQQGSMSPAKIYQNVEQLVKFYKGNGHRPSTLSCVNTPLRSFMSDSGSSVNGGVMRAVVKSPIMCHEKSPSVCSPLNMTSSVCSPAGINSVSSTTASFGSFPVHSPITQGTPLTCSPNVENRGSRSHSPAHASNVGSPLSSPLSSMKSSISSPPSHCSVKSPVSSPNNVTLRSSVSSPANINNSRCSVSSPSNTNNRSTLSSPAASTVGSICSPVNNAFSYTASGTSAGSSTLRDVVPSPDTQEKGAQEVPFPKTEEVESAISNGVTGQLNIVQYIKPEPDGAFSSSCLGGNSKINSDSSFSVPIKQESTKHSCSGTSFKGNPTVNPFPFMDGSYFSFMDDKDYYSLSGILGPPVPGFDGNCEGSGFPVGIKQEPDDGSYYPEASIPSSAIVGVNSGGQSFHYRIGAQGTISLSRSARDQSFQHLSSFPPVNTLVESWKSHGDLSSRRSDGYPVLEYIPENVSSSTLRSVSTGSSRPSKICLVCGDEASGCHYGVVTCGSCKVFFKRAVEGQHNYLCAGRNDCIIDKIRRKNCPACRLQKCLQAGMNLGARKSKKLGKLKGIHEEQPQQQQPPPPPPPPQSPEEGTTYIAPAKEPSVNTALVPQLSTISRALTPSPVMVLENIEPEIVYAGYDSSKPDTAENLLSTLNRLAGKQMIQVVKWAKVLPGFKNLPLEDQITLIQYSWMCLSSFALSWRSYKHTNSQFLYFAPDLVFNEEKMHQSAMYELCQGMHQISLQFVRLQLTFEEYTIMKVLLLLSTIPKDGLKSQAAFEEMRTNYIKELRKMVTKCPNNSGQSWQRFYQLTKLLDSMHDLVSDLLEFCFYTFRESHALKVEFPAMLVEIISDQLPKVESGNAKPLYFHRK
Sequence of CYP1A2 (P05177 whole entry): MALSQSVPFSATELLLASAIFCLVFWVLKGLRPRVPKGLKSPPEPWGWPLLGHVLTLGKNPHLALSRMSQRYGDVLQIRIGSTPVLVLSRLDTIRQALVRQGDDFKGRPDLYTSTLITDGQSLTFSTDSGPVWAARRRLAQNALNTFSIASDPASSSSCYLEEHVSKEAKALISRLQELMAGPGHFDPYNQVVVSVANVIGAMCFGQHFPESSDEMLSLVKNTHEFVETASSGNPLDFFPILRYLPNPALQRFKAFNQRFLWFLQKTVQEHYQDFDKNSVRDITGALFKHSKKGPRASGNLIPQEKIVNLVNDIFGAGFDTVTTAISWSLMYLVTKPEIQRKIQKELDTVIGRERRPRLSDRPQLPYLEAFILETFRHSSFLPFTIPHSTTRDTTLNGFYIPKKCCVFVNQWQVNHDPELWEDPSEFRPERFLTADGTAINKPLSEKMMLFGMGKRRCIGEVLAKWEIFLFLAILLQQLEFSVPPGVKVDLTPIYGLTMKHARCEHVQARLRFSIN
Sequence of Glucocorticoid receptor (Homo sapiens) (P04150 whole entry): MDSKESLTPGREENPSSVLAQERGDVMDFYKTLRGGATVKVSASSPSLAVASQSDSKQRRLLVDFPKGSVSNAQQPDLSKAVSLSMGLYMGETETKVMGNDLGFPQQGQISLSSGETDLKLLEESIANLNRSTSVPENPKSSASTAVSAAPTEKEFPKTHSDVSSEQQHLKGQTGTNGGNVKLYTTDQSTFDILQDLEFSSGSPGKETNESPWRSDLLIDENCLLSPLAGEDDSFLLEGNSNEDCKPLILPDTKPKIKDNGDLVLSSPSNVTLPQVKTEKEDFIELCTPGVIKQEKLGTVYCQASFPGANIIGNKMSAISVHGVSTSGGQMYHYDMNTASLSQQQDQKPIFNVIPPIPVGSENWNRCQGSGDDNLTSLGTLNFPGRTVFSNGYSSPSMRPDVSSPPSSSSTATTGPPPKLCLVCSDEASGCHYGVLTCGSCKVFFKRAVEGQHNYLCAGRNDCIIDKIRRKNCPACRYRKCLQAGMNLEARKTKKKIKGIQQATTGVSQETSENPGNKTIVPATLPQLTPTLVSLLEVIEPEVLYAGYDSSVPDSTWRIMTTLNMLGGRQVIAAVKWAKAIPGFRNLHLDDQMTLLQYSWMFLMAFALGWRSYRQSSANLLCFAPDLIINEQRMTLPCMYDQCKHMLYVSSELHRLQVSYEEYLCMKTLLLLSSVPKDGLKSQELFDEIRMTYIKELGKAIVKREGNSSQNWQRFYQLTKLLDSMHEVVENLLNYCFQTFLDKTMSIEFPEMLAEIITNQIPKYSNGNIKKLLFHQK
Sequence of CYP2C9 (P11712 whole entry): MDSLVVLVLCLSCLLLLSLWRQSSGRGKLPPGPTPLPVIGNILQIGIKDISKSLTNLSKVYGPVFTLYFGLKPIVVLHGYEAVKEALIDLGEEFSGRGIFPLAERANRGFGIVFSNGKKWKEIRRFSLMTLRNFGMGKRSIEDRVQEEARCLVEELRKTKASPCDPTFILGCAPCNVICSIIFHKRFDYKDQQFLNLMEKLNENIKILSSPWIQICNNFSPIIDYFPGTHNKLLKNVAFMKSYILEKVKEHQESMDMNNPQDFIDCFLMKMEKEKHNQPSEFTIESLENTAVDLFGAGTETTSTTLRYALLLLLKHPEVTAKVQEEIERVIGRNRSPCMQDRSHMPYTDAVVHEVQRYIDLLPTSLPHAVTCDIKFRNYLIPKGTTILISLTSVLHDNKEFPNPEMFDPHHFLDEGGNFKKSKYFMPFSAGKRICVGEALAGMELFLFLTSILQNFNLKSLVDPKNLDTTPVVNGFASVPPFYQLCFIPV

For CC(C)(C)c1c(C(=O)NC2C3CC4CC(C3)CC2C4)cnn1-c1ccc(C(=O)O)cc1 (stereo not drawn), the Activity [1] was “Non-toxic”, the Vd [2] was 0.4 L/kg and the IC50 [3] was 6.1 µM. For the same molecule, the half-life [4] was 306 min, the IC50 [5] was over 30 µM and the CL [6] was under 5%. For the same molecule, the inhibition at 10 µM [7] was under 25%, the half-life [8] was 330 min and the half-life [9] was 348 min. The CL [10] was under 1%, the IC50 [11] was 2 nM and the bioavailability [12] was 95%. The clearance [13] was 0.6 mL/min/kg, the inhibition in vivo at 3 mg/kg [14] was 50% and the Vd [15] was 0.1 L/kg. For the same molecule, the IC50 [16] was over 30 µM, the clearance [17] was 0.3 mL/min/kg and the clearance [18] was 9 mL/min/kg. The half-life [19] was 132 min, the Papp A→B at 10 µM [20] was 7.3 ×10⁻⁶ cm/s and the Stability [21] was “Stable”. For the same molecule, the IC50 [22] was 8 nM, the Activity [23] was “Non-toxic” and the fraction unbound [24] was 0.013. The Stability [25] was 96%, the Stability [26] was 99.4% and the Stability [27] was 10.8%. The IC50 [28] was 24 nM, the Activity [29] was “Non-toxic” and the fraction unbound [30] was 0.035. It also gave a Vd [31] of 0.3 L/kg, a Drug metabolism [32] of 0.2% and a Drug metabolism [33] of 80.1%. The inhibition [34] was “inactive”, the inhibition at 10 µM [35] was under 25% and the hepatocyte CLint [36] was under 2 µL/min/1e6 cells. For the same molecule, the Stability [37] was 93.7%, the fraction unbound [38] was 0.02 and the inhibition at 10 µM [39] was under 25%. The bioavailability [40] was 95%, the IC50 [41] was 9 nM and the Stability [42] was 95%. For the same molecule, the Papp B→A at 10 µM [43] was 3.9 ×10⁻⁶ cm/s, the inhibition [44] was “inactive” and the Drug metabolism [45] was 5.8%. The bioavailability [46] was 100%, the inhibition [47] was under 5% and the fraction unbound [48] was 0.014. For the same molecule, the solubility at 24 h [49] was over 1900 µM, the inhibition at 10 µM [50] was under 25% and the clearance [51] was 0.6 mL/min/kg. The half-life [52] was 294 min, the inhibition [53] was “Active” and the inhibition at 10 µM [54] was under 25%. It also gave a logD [55] of 1, a bioavailability [56] of 45% and a half-life [57] of 48 min. The IC50 [58] was 86 nM.
